# Results published in publication PMC3695357, “Identification of Novel IGF1R Kinase Inhibitors by Molecular Modeling and High-Throughput Screening” (Acta Naturae, 2013).
# pIC50: −log10 of the molar value.
# Key:
# Assay type in all cases: biochemical
# IGF1R kinase [1] = target: T1, IGF1R kinase (Homo sapiens, UniProt P08069); test: Michaelis-Menten kinetics / Lineweaver-Burk competition analysis; details: Lineweaver-Burk plot; for inhibition mechanism with regard to ATP: IGF1Rtide 143 μg/ml, ATP titrated; for inhibition mechanism with regard to the substrate: poly(Glu4,Tyr1) titrated, ATP 250 μM
# T1 construct: This assay utilizes a recombinant intracellular kinase domain fragment of IGF1R; purchased Promega Corp
# Experimental: (§1) Multi-well liquid dispensing for setting up assays was performed using either the robotic liquid handler PlateMate Plus or the manual electronic multichannel micropipettes Matrix Impact (Thermo Scientific, Hudson, NH, USA). High-throughput Screening (HTS), kinase selectivity, and dose-response (IC50) assays were read in the luminescence mode using the PolarStar Omega reader (BMG Labtech, Ortenberg, Germany) or M5 reader (Molecular Devices Corp., Sunnyvale, CA). IGF1R ADP-Glo data in relative luminescence units (RLU) were collected from the plate readers, and the percentage of activity (% Activity) was determined for each point as follows: % Activity = 100*(RLU sample – RLU no kinase control avg)/(RLU kinase control avg – RLU no kinase control avg). The screening data were processed and visualized using Microsoft Excel templates designed to calculate the inhibition values, the Z’-factor, and GraphPad Prism 5 (GraphPad Software, Inc., La Jolla, CA) for IC50 analysis. The doseresponse curves of Percent Activity were fit in Prism, using a sigmoidal variable slope fit with the maximum % activity and the minimum % activity fixed at 100% and 0%, respectively. The Z′ factor, a statistical measure of variability and reproducibility for HTS assays, was determined using the following formula: Z′ = 1-[3 × (SDsample+SDcontol)/|Msample-Mcontrol|] [12], where SD denotes the standard deviation and M denotes the mean for the samples and controls, respectively. Prior to starting HTS, assay conditions were optimized and validated with regard to the maximum ATP turnover (never exceeding 20%), an acceptable signal-to-background ratio (“assay window”) of at least 6, an acceptable Z’-factor of at least 0.6, as well as day-to-day and plate-to-plate reproducibility of the screening data. All primary screening was performed at 20 μM compound concentrations, and some of the weak hits were subsequently re-tested at higher concentrations (40 or 80 μM) for confirmation. Statistically significant HTS hits in the primary screening were defined as those that produced a kinase activity signal at least three standard deviations lower than the mean of the assay plate run (not including the plate controls). Lineweaver- Burk plots were created in Excel or Prism using the standard algorithms. All assay development and validation and high-throughput screening procedures were carried out according to the general guidelines as published on the U.S. National Chemical Genomics Center web site (NC GC Assay Guidance Manual and High-throughput Assay Guidance Criteria, http://www.ncbi.nlm.nih.gov/books/NBK53196/).
# Serial dilutions of ATP and substrate polypeptide poly(Glu4,Tyr1) were tested in IGF1R kinase assays with the inhibitors L1 and T4 to produce the kinetic data for Lineweaver-Burk plots. […]
# BTK kinase = BTK kinase (Homo sapiens, UniProt Q06187); test: BTK ADP-Glo kinase selectivity assay, single concentration; details: remaining kinase activity at 40 μM compound, 50 μM ATP
# Experimental: (§2) Kinase selectivity assays with InsR (dose-response measurements) and Met, Syk and BTK kinases (single point compound concentrations) using the ADP-Glo readout system were run under optimized experimental conditions similar to the IGF1R assay with regard to the kinetic parameters of kinase reactions.
# (§3) The amounts of the Met, Syk, and BTK enzymes and the incubation time were optimized to ensure an ATP conversion not higher than 20% in all cases. The typical assay window (signal/background) was 3–5 for all kinases. The final volumes of the Met, Syk, and BTK kinase assay reaction mixtures were 5 μL. Two μL of the enzyme solution in a 1× reaction buffer (6 ng Met, 8 ng BTK, 4 ng Syk), 1 μL of the compound solution in a 2× reaction buffer, the ATP and substrate mixture in a 0.5× reaction mixture were added sequentially. The composition of the 1× reaction buffer was 40 mM Tris, 20 mM magnesium chloride, 0.1 mg/ml bovine serum albumin, 500 μM DTT at pH 7.5 with 1% final concentration of the DMSO, 50 μM ATP, and 0.2 mg/ml Poly(Glu4, Tyr1) substrates. The buffer was supplemented with 2 mM manganese (II) chloride in the case of BTK kinase. Compounds were tested at 40 μM concentrations. In each experiment, 6 wells with the enzyme, but no added compounds, were used as negative inhibition controls; 6 wells without tested compounds and the enzyme and 6 wells with the enzyme and 0.5–1 μM staurosporine were used as positive inhibition controls. Pre-incubation of the reaction mixture with compounds prior to ATP addition was performed for 20 min at 25°C in all experiments. The incubation of the reaction mixture lasted for 25 min at 37°C. All compounds were tested in 4 to 6 repeats. Conditions of ADP detection were as follows: 40 min incubation with an ADP-Glo reagent, followed by 30 min with a detection reagent at 25°C. Luminescence was read using a BMG Polarstar Omega reader at a gain setting of 4095 and measurement time of 0.5 s.
# Met kinase = Met kinase (Homo sapiens, UniProt P08581); test: Met ADP-Glo kinase selectivity assay, single concentration; details: remaining kinase activity at 40 μM compound, 50 μM ATP
# Experimental: as §2, §3
# IGF1R kinase [2] = target: T1, IGF1R kinase; test: IGF1R ADP-Glo kinase assay, dose-response; details: for pIC50: ADP-Glo, 8-point curves from 100 μM, 50 μM ATP; for selectivity for IGF1R versus InsR: from IC50 values of Table 1
# Experimental: as §1
# IGF1R high throughput screening (HTS) assays using the IGF1R Kinase System and ADP-Glo readout system (Promega Corp.) were performed in a final volume of 7 μL per test compound using a 384-well small volume microplate format. All liquid dispensing was done using the PlateMate Plus robotic liquid handler. 3 μL aliquots of the enzyme/substrate mixture containing 1 μg of the IGF1Rtide peptide substrate and 4 ng of recombinant IGF1R kinase in a 0.66× assay buffer were transferred to the plate wells. The assay buffer (1×) consisted of 40 mM Tris chloride, 20 mM magnesium chloride, 0,1 mg/ml bovine serum albumin, 2 mM manganese chloride, and 250 μM dithiothreitol (DTT ). To add the tested compounds to the reaction, starting stocks of 10 mM compounds in dimethyl sulfoxide (DMSO) were diluted with DMSO to 2 mM. Next, 3 μL aliquots of 2 mM compound stock solutions in DMSO were transferred to 83 μL volumes of a 1× reaction buffer and thoroughly mixed. Aqueous compound solution aliquots of 2 μL were then transferred into the assay plate to get a final concentration of each compound of 20 μM in 1% DMSO. The plates were pre-incubated at 27°C for 10 min with gentle shaking (300 rpm). The assay was started by adding 2 μL of the ATP stock solution to the reaction mixture to achieve a final ATP concentration of 50 μM. […]
# Syk kinase = Syk kinase (Homo sapiens, UniProt P43405); test: Syk ADP-Glo kinase selectivity assay, single concentration; details: remaining kinase activity at 40 μM compound, 50 μM ATP
# Experimental: as §2, §3
# InsR kinase = target: T2, InsR kinase (Homo sapiens, UniProt P06213); test: InsR ADP-Glo kinase assay, dose-response; details: for pIC50: ADP-Glo, 8-point curves from 100 μM; for stronger inhibition of InsR versus IGF1R: from IC50 values of Table 1
# T2 construct: the amount of recombinant insulin receptor kinase was 2 ng per well
# Experimental: as §2
# Dose-response and IC50 measurements for the confirmed screening hits were conducted for IGF1R and InsR kinases. The conditions were similar to the HTS conditions described above, except that the compounds were plated in 8-point curves serially diluted 1:2 from 100 μM top concentrations and with a 1% final DMSO throughout, in quadruplicates for each compound dilution point. The time of incubation of kinase reaction mixtures was 2.5 or 4.5 hours at 27°C in different experiments both for the insulin kinase receptor and IGF1R, the dithiotreitol (DTT ) concentration was 500 μM, and the amount of recombinant insulin receptor kinase was 2 ng per well. DTT concentration was elevated to enhance the stability of the enzymes during 4.5 h incubation experiments. Compounds were typically serially 2-fold diluted in pure DMSO starting from 10 mM down to 19.5 μM to produce the final concentrations ranging from […] in a 1% DMSO-aqueous reaction buffer.
# Met kinase, sequence (P08581 25-1390): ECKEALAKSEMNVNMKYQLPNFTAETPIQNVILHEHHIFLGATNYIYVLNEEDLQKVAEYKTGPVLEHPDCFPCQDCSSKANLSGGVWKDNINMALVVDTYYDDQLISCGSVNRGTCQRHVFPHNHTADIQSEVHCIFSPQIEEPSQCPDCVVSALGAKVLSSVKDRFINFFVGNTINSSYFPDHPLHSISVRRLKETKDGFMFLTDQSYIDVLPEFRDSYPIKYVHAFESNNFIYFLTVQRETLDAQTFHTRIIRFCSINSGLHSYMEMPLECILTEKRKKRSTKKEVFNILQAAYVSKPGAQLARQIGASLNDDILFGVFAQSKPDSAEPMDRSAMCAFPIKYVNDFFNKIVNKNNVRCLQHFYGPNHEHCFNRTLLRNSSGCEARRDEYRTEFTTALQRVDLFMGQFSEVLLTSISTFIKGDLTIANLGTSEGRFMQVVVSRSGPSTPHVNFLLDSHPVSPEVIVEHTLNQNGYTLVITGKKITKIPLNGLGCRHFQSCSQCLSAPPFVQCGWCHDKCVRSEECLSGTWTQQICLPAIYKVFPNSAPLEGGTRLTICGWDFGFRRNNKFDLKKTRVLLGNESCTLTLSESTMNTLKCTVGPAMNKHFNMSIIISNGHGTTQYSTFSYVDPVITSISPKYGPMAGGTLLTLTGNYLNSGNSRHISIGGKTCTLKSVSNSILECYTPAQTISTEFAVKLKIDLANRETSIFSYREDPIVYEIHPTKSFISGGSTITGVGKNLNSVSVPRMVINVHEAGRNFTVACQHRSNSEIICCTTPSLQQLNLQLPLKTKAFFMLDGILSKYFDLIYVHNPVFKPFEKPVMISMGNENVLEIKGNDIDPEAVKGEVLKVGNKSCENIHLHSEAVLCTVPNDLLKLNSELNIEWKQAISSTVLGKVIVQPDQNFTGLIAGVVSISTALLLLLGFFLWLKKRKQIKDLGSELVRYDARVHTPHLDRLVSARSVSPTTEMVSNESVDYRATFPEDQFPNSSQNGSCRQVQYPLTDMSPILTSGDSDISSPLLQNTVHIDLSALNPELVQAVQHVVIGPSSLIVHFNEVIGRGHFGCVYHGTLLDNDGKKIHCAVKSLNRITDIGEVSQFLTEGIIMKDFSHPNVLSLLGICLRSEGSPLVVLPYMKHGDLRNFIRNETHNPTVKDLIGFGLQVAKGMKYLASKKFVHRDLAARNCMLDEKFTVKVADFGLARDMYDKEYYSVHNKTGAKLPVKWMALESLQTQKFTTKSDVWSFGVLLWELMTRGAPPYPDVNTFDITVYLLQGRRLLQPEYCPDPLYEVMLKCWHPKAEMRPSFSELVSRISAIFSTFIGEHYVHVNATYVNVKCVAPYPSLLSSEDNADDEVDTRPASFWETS
# T2 sequence (P06213 28-1382): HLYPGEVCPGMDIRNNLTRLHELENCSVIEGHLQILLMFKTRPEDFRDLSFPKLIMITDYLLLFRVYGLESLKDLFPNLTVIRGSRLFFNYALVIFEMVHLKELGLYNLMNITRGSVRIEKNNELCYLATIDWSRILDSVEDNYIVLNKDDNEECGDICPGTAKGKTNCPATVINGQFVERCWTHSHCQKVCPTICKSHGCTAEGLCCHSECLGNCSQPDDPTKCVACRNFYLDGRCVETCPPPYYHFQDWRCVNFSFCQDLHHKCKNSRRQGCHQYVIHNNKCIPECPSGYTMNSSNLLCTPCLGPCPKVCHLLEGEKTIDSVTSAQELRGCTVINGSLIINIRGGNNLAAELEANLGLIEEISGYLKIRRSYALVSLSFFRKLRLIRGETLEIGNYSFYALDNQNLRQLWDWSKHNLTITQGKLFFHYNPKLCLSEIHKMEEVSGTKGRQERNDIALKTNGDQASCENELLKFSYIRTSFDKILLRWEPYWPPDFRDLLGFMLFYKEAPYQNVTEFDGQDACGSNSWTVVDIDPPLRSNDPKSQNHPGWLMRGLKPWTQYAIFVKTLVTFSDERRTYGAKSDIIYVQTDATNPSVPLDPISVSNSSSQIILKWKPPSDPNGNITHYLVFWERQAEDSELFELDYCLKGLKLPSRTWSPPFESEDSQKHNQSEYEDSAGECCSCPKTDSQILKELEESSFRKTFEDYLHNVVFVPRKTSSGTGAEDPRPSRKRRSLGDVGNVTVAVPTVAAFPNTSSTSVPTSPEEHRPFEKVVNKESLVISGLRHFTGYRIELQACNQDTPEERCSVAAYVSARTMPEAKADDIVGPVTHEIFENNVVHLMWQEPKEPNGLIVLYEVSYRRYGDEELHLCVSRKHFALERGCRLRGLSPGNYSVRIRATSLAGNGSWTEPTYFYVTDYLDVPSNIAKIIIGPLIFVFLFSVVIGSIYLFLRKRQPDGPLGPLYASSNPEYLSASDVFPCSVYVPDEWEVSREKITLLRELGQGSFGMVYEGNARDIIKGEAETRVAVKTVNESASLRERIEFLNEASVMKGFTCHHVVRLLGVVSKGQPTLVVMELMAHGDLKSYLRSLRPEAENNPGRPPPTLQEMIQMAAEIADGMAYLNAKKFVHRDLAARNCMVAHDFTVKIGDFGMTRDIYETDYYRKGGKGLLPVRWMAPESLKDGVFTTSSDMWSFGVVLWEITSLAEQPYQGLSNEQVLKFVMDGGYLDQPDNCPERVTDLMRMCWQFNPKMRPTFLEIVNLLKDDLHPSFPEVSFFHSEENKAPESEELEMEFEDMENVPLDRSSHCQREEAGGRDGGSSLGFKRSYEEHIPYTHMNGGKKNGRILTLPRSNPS
# BTK kinase, sequence (Q06187 whole entry): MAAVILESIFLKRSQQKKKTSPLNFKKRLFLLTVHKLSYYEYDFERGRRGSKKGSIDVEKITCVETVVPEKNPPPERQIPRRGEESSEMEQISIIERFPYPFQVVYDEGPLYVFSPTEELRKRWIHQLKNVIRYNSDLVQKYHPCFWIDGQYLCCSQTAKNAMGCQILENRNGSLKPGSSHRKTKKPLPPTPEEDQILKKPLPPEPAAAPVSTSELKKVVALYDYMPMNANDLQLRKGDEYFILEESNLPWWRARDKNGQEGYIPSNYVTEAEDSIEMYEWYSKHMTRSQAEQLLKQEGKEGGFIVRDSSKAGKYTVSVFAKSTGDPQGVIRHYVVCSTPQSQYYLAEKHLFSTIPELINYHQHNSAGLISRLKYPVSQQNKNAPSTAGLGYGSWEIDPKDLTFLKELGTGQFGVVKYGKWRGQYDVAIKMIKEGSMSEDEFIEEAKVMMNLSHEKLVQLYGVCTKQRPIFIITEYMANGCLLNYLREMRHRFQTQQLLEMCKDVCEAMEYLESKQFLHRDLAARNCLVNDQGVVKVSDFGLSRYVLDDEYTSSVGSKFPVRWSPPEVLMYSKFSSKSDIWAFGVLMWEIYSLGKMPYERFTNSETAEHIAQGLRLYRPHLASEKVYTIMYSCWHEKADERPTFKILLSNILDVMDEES
# T1 sequence (P08069 999-1274 limits assumed): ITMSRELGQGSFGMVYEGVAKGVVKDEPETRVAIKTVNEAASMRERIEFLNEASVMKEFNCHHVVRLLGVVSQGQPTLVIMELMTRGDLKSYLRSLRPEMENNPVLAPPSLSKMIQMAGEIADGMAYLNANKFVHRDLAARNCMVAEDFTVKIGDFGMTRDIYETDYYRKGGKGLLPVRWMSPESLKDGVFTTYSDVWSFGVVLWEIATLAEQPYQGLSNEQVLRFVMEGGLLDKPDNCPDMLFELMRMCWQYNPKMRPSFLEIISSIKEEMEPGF
SMILES,inhibition mechanism with regard to ATP (IGF1R kinase [1]),inhibition mechanism with regard to the substrate (IGF1R kinase [1]),"Activity Btk, % (BTK kinase) [%]","Activity Met, % (Met kinase) [%]",pIC50 (IGF1R kinase [2]),selectivity for IGF1R versus InsR (IGF1R kinase [2]),"Activity Syk, % (Syk kinase) [%]",pIC50 (InsR kinase),stronger inhibition of InsR versus IGF1R (InsR kinase)
O=C(Nc1ccc2c(c1)OCCO2)c1ccc2c(c1)OCCO2 [Compound L1],non-competitive inhibition,non-competitive inhibition,98,102,4.74,essentially nonselective,109,4.66,–
O=C(Nc1ccc2c(c1)OCO2)c1ccc2c(c1)OCCO2 [Compound L2],–,–,106,63,4.60,–,48,4.00,–
COc1ccc(NC(=O)c2ccc3c(c2)OCCO3)cc1 [Compound L3],–,–,106,77,4.59,essentially nonselective,88,4.54,–
O=C(Nc1ccc2nccnc2c1)c1ccc2c(c1)OCCO2 [Compound L4],–,–,113,60,4.60,essentially nonselective,53,4.52,–

# Next, values leading:
inhibition mechanism with regard to ATP (IGF1R kinase [1]),inhibition mechanism with regard to the substrate (IGF1R kinase [1]),"Activity Btk, % (BTK kinase) [%]","Activity Met, % (Met kinase) [%]",pIC50 (IGF1R kinase [2]),selectivity for IGF1R versus InsR (IGF1R kinase [2]),"Activity Syk, % (Syk kinase) [%]",pIC50 (InsR kinase),stronger inhibition of InsR versus IGF1R (InsR kinase),SMILES
–,–,92,78,~4.00,–,84,4.70,5-10 fold,NS(=O)(=O)c1ccc(NNC(=O)c2ccc(NS(=O)(=O)c3cccs3)cc2)c([N+](=O)[O-])c1 [Compound T1]
–,–,83,62,4.74,–,72,4.52,–,COc1cc(CNC(=O)c2ccc[nH]c2=S)ccc1OCc1ccncc1 [Compound T2]
–,–,81,98,~4.00,–,115,5.00,5-10 fold,CCOc1ccc(NS(=O)(=O)c2ccc3[nH]c(=O)cc(C(=O)Nc4ccn(C)n4)c3c2)cc1 [Compound T3]
non-competitive inhibition,non-competitive inhibition,82,75,5.15,–,115,5.00,–,O=C(NCc1ccc(Cn2ccnc2)cc1)c1ccc[nH]c1=S [Compound T4]
